Experimental findings from PubChem BioAssay AID330 (DTP/NCI, 2004) are described below.

The assay concerns P388 leukemia ip, CD2F1 mice, survival T/C. As to the kind of experiment: NCI In Vivo Anticancer Drug Screen. Data for tumor model P388 Leukemia (intraperitoneal) in CD2F1 (CDF1) mice. The conditions noted are these: endpoint: median survival time, higher = longer survival. Summed up: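 Mice carrying the transplanted tumor received test compound or vehicle. Survival was recorded in each group, and the value is the treated-group measurement divided by that of the vehicle-treated control group.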

The mark [1] stands for this setting: dose: 100.0 mg/kg/injection, schedule: Q04DX003 (ip), vehicle: saline.
The mark [2] stands for this setting: dose: 200.0 mg/kg/injection, schedule: Q04DX003 (ip), vehicle: saline.
The mark [3] stands for this setting: dose: 50.0 mg/kg/injection, schedule: Q01DX009 (ip), vehicle: saline.
[4] abbreviates: dose: 50.0 mg/kg/injection, schedule: Q01DX005 (ip), vehicle: Klucel (hydroxypropylcellulose) (HPC).
The mark [5] stands for this setting: dose: 50.0 mg/kg/injection, schedule: Q01DX005 (ip), vehicle: saline with Tween-80.
The mark [6] stands for this setting: dose: 100.0 mg/kg/injection, schedule: Q01DX005 (ip), vehicle: saline with Tween-80.
The mark [7] stands for this setting: dose: 100.0 mg/kg/injection, schedule: Q01DX009 (ip), vehicle: saline with Tween-80.
The mark [8] stands for this setting: dose: 200.0 mg/kg/injection, schedule: Q01DX009 (ip), vehicle: saline with Tween-80.
Where [9] appears, read: dose: 400.0 mg/kg/injection, schedule: Q01DX009 (ip), vehicle: saline with Tween-80.
Setting [10] is: dose: 100.0 mg/kg/injection, schedule: Q01DX009 (ip), vehicle: saline.
[11] abbreviates: dose: 200.0 mg/kg/injection, schedule: Q01DX009 (ip), vehicle: saline.
Where [12] appears, read: dose: 200.0 mg/kg/injection, schedule: Q01DX005 (ip), vehicle: saline with Tween-80.
Where [13] appears, read: dose: 15.0 mg/kg/injection, schedule: Q01DX005 (ip), vehicle: saline with Tween-80.
[14] abbreviates: dose: 30.0 mg/kg/injection, schedule: Q01DX005 (ip), vehicle: saline with Tween-80.
Setting [15] is: dose: 60.0 mg/kg/injection, schedule: Q01DX005 (ip), vehicle: saline with Tween-80.

Structures are written as SMILES. “And” between values parts separate entries of the source, which are not always exact repeats. Equal values may be shown once. Inconclusive results and toxic doses are left out. Peptide text beside a SMILES is read from it. * marks the point of attachment. Cbz = O=C(OCc1ccccc1)*; OtBu = CC(C)(C)O*

`CCOC(=O)N1CCNCC1`: the T/C was 108 % of control under setting [1] and 108 % of control under setting [2].
Consider `CN=C(NN(C)C)c1ccc(NC(=O)c2ccc(C(=O)Nc3ccc(C(=NC)NN(C)C)cc3)cc2)cc1`, for which the T/C by setting is: (dose: 3.3 mg/kg/injection, schedule: Q01DX009 (ip), vehicle: saline with Tween-80) 115 % of control; (dose: 4.3 mg/kg/injection, schedule: Q01DX009 (ip), vehicle: saline with Tween-80) 118 % of control; (dose: 13.2 mg/kg/injection, schedule: Q04DX003 (ip), vehicle: saline with Tween-80) 91 % of control.
In the case of `CCCCCCCCCCCCNCC(=O)O`, the T/C was 109 % of control (dose: 25.0 mg/kg/injection, schedule: Q01DX009 (ip), vehicle: saline) and 113 % of control under setting [3].
`O=C(Nc1ccc(Oc2ccc(Cl)cc2)c(Cl)c1)c1cc(I)cc(I)c1O`: the T/C reads like this: (dose: 12.5 mg/kg/injection, schedule: Q01DX005 (ip), vehicle: Klucel (hydroxypropylcellulose) (HPC)) 96 % of control; (dose: 25.0 mg/kg/injection, schedule: Q01DX005 (ip), vehicle: Klucel (hydroxypropylcellulose) (HPC)) 109 % of control; under setting [4], 101 % of control and 115 % of control.
With `COC(=O)CC1(O)C=CC(=O)c2ccccc21` (stereo not drawn), the T/C is 94 % of control (dose: 12.5 mg/kg/injection, schedule: Q01DX005 (ip), vehicle: saline with Tween-80); 100 % of control (dose: 25.0 mg/kg/injection, schedule: Q01DX005 (ip), vehicle: saline with Tween-80); 109 % of control under setting [5]; 112 % of control under setting [6].
For `CCOC(=O)C(Cc1ccc(O)cc1)Nc1nc2ccccc2o1` (stereo not drawn), the T/C is, setting by setting: (dose: 50.0 mg/kg/injection, schedule: Q01DX009 (ip), vehicle: saline with Tween-80) 95 % of control; under setting [7], 105 % of control; under setting [8], 103 % of control; under setting [9], 96 % of control.
For `O=Cc1ccc2c(c1)C(O)NC(=O)O2` (stereo not drawn), the T/C is, setting by setting: under setting [5], 100 % of control; under setting [6], 101 % of control.
Turning to `c1cc2c3c(c1)c1cc4c(cc1c[n+]3CC2)OCO4`, the T/C runs as follows: (dose: 25.0 mg/kg/injection, schedule: Q01DX009 (ip), vehicle: other) 153 % of control; (dose: 25.0 mg/kg/injection, schedule: Q01DX009 (ip), vehicle: water) 91 % of control.
As for `Cc1ccccc1C1N(Cc2ccccc2)C(=S)C1(C(C)C)C(C)(C)C` (stereo not drawn), the T/C is 102 % of control (dose: 100.0 mg/kg/injection, schedule: Q01DX001 (ip), vehicle: saline with Tween-80); 92 % of control (dose: 200.0 mg/kg/injection, schedule: Q01DX001 (ip), vehicle: saline with Tween-80); 94 % of control (dose: 400.0 mg/kg/injection, schedule: Q01DX001 (ip), vehicle: saline with Tween-80).
Turning to `CC(=O)NOCC1NC(=O)C(CONC(C)=O)NC1=O` (stereo not drawn), the T/C is, setting by setting: (dose: 30.0 mg/kg/injection, schedule: Q01DX005 (ip), vehicle: saline) 103 % of control; (dose: 60.0 mg/kg/injection, schedule: Q01DX005 (ip), vehicle: Klucel (hydroxypropylcellulose) (HPC)) 105 % of control; (dose: 60.0 mg/kg/injection, schedule: Q01DX005 (ip), vehicle: saline) 103 % of control; (dose: 120.0 mg/kg/injection, schedule: Q01DX005 (ip), vehicle: Klucel (hydroxypropylcellulose) (HPC)) 115 % of control; (dose: 120.0 mg/kg/injection, schedule: Q01DX005 (ip), vehicle: saline) 108 % of control; (dose: 240.0 mg/kg/injection, schedule: Q01DX005 (ip), vehicle: Klucel (hydroxypropylcellulose) (HPC)) 120 % of control. In addition, the T/C (dose: 240.0 mg/kg/injection, schedule: Q01DX005 (ip), vehicle: saline) is 120 % of control.
With `O=C(CCn1c(CN2CCN(C/C=C/c3ccccc3)CC2)nc2ccccc21)c1ccccc1`, the T/C runs as follows: (dose: 50.0 mg/kg/injection, schedule: Q01DX009 (ip), vehicle: Klucel (hydroxypropylcellulose) (HPC)) 104 % of control; (dose: 100.0 mg/kg/injection, schedule: Q01DX009 (ip), vehicle: Klucel (hydroxypropylcellulose) (HPC)) 100 % of control; (dose: 200.0 mg/kg/injection, schedule: Q01DX009 (ip), vehicle: Klucel (hydroxypropylcellulose) (HPC)) 111 % of control.
As to `CC(=O)OCCN1c2ccccc2Sc2cnccc21`, the T/C runs as follows: under setting [7], 100 % of control; under setting [8], 100 % of control; under setting [9], 95 % of control.
Regarding `Cc1ccccc1N1C(=O)[N+](C)(C)N=C1[O-]`, the T/C is, setting by setting: under setting [1], 109 % of control and 113 % of control; under setting [2], 99 % of control and 113 % of control; (dose: 400.0 mg/kg/injection, schedule: Q04DX003 (ip), vehicle: saline) 91 % of control.
With `BrC(Br)=C(Br)Br`, the T/C is 100 % of control under setting [3], 104 % of control under setting [10] and 104 % of control under setting [11].
In the case of `CC(C)(C)OC(=O)CCC(NC(=O)C(CCC(=O)OC(C)(C)C)NC(=O)C(CCC(=O)OC(C)(C)C)NC(=O)OCc1ccccc1)C(=O)O` (stereo not drawn) (Cbz-Glu(OtBu)-Glu(OtBu)-Glu(OtBu)-OH; configuration not given here), the T/C reads like this: under setting [5], 104 % of control; under setting [6], 100 % of control; under setting [12], 96 % of control.
As to `c1ccc2c(CCN3CCCCC3)c[nH]c2c1`, the T/C is, setting by setting: under setting [13], 92 % of control; under setting [14], 88 % of control; under setting [15], 101 % of control and 87 % of control.
Consider `COc1cc(C(CC(=O)O)CC(=O)O)cc(OC)c1OC`, for which the T/C is 93 % of control under setting [5], 95 % of control under setting [6] and 95 % of control under setting [12].
For the molecule `C#CCn1c(=O)c2cc3ccccc3nc2n(CC#C)c1=O`, the T/C reads like this: under setting [4], 96 % of control; (dose: 100.0 mg/kg/injection, schedule: Q01DX005 (ip), vehicle: Klucel (hydroxypropylcellulose) (HPC)) 93 % of control.
With `C[N+](C)(Cc1cccc(Cl)c1)c1nnn[n-]1`, the T/C runs as follows: (dose: 100.0 mg/kg/injection, schedule: Q04DX003 (ip), vehicle: Klucel (hydroxypropylcellulose) (HPC)) 98 % of control; (dose: 200.0 mg/kg/injection, schedule: Q04DX003 (ip), vehicle: Klucel (hydroxypropylcellulose) (HPC)) 101 % of control; (dose: 400.0 mg/kg/injection, schedule: Q04DX003 (ip), vehicle: Klucel (hydroxypropylcellulose) (HPC)) 107 % of control.
With `Cc1nc2c(cc1C#N)C(NCCO)Oc1ccccc1-2` (stereo not drawn), the T/C was 97 % of control under setting [15]; 97 % of control (dose: 120.0 mg/kg/injection, schedule: Q01DX005 (ip), vehicle: saline with Tween-80); 99 % of control (dose: 240.0 mg/kg/injection, schedule: Q01DX005 (ip), vehicle: saline with Tween-80).
On to `O=Cc1c(-c2ccc(Cl)cc2)nc2sccn12`, for which the T/C (dose: 100.0 mg/kg/injection, schedule: Q01DX001 (ip), vehicle: Klucel (hydroxypropylcellulose) (HPC)) was 93 % of control; the T/C (dose: 200.0 mg/kg/injection, schedule: Q01DX001 (ip), vehicle: Klucel (hydroxypropylcellulose) (HPC)) is 96 % of control; the T/C (dose: 400.0 mg/kg/injection, schedule: Q01DX001 (ip), vehicle: Klucel (hydroxypropylcellulose) (HPC)) is 93 % of control.
In the case of `Nc1cc(=O)c2n[nH]nc2[nH]1`, the T/C (dose: 50.0 mg/kg/injection, schedule: Q04DX003 (ip), vehicle: saline with Tween-80) is 100 % of control; the T/C (dose: 100.0 mg/kg/injection, schedule: Q04DX003 (ip), vehicle: saline with Tween-80) is 108 % of control; the T/C (dose: 200.0 mg/kg/injection, schedule: Q04DX003 (ip), vehicle: saline with Tween-80) was 108 % of control; the T/C (dose: 400.0 mg/kg/injection, schedule: Q04DX003 (ip), vehicle: saline with Tween-80) was 107 % of control.
`NCCNC[Si](c1ccccc1)(c1ccccc1)c1ccccc1`: the T/C reads like this: under setting [13], 102 % of control; under setting [14], 102 % of control.
Turning to `CNC(=S)N(C)C`, the T/C runs as follows: under setting [3], 98 % of control; under setting [10], 99 % of control; under setting [11], 109 % of control.
